“And” between values parts separate entries of the source, which are not always exact repeats. Equal values may be shown once. Read-outs that look alike come from different tables or passages of the source.
What was measured:
[1] = tested on: C. parvum invasion of HCT-8 host cells; test: HCT-8 host cell invasion assay; assay type: cell-based, Cryptosporidium parvum; conditions: 11.3 µM, HCT-8 invasion 3 h
Description: (§1) The invasion assay, DNA replication assay, asexual to sexual stage conversion, and time-kill curve assays were performed using fluorescence microscopy to enumerate parasites and host cell nuclei. Staining protocols are individually described for each assay. Unless noted otherwise, the details of image acquisition were as follows. An inverted Nikon Eclipse Ti2000 microscope with an automated stage and Perfect Focus was used with NIS-Elements Advanced Research software (Nikon, USA, version 4.30.01) to image the wells. The microscope was programmed to focus on the center of each well and then take a 3 × 3 composite image per well using a 20 × (0.45 NA) objective. Images were exported as .tiff files and parasites and host nuclei counted using a custom macro on ImageJ (National Institutes of Health, version 1.52a). Data were analyzed using Microsoft Excel and GraphPad Prism (version 6.01).
Host cell invasion was assayed by allowing C. parvum to invade host cell monolayers in the presence of compound, and enumerating parasites and host cells after just 3 h (i.e., before completion of a parasite division cycle)[38]. HCT-8 cells were grown in RPMI media supplemented with 120 U per mL penicillin and 120 μg per mL streptomycin and 10% heat inactivated fetal bovine serum (complete media) and C. parvum Iowa isolate oocysts from Bunch Grass Farms (Deary, ID) were used for infection. When cells reached a confluence of >99%, media was removed and replaced with 25 µL per well of fresh media containing twice the indicated concentrations of compounds and incubated for 1 h at 37 °C in a humidified CO2 incubator. In the meantime, oocysts were induced for excystation by first treating with 10 mM hydrochloric acid (diluted with distilled water) for 10 min at 37 °C followed by 2 mM sodium taurocholate (in phosphate buffered saline (PBS) with calcium and magnesium) for 10 min at 16 °C. Before and after each treatment, oocysts were spun down at 14,000 × g for 4.5 min and supernatant was removed. […]

[2] = tested on: C. parvum DMC1 positive parasites; design: method as in PMID 31015448; conditions: cited from earlier work
[3] = tested on: C. parvum (Bunch Grass Farms Iowa isolate); test: Time-kill curve assay in HCT-8 cells; assay type: cell-based, Cryptosporidium parvum; conditions: for time-kill curve result: compound added ~24 h after infection of HCT-8
Description: as §1, with “6.01). […] C. parvum Iowa isolate oocysts (Bunch Grass Farms, Deary, ID) were treated to induce excystation and added to >90% confluent HCT-8 cells in 384-well plates. […] The monolayers were then washed, fixed, and stained with Vicia villosa lectin and DAPI at the indicated time points, and imaged as for the C. parvum growth assay. Separate 384-well plates were used for each time point. Parasite numbers were normalized to host cell nucleus numbers and expressed as the percentage of host cells infected. Drug-induced parasite decay was isolated from the reduction in parasites over time that occurs spontaneously in the HCT-8 culture system by expressing the number of parasites as the percentage of the number of parasites present at each time point under control (DMSO-treated) conditions.” for “6.01).”

[4] = tested on: C. parvum; test: C. parvum growth inhibition in HCT-8 cells (follow-up assay, Vicia villosa lectin staining); assay type: cell-based, Cryptosporidium parvum; conditions: Iowa (BGF, 10%FBS), HCT-8, single replicates, unit inferred, read-out: In vitro efficacy (Fig 2b, EC50)
Description: Follow-up assays were performed at the University of Vermont (UVM) and Calibr at Scripps Research by infection of the colonic adenocarcinoma cell line HCT-8 (ATCC CCL-244) and staining with the Vicia villosa lectin and DAPI[17],[32]. The FBS concentrations and parasites used for these assays were as indicated; parasite isolates and sources included C. parvum Iowa isolate oocysts purchased from Bunch Grass Farm (Deary, ID), C. parvum Iowa isolate oocysts purchased from the Sterling Laboratory (University of Arizona, Tucson, AZ), wild type C. parvum oocysts provided by Dr. Jenni Zambriski (Virginia Tech, Blacksburg, VA), and the C. hominis TU502 isolate purchased from Dr. Saul Tzipori (Tufts University Cummings School of Veterinary Medicine, North Grafton, MA). […] Amphotericin B (Sigma, catalog# A2942) was added to the culture media at 0.1 to 0.5 µg per mL for the DMC1 dose response assays.

[5] = tested on: C. parvum (Bunch Grass Farms Iowa isolate); test: NOD scid gamma (NSG) mouse model of established C. parvum infection; assay type: in vivo, NOD scid gamma mice; conditions: for parasite fecal shedding (qPCR), individual mice: 2,000 mg/kg
Description: NOD scid gamma mice (NOD.Cg-Prkdcscid Il2rgtm1Wjl/SzJ)[55] (NSG) were used to model chronic Cryptosporidium infection. All NSG mouse studies were performed in compliance with animal care guidelines and with approval by the University of Vermont Institutional Animal Care and Use Committee. NSG mice with normal flora were purchased from The Jackson Laboratory (Bar Harbor, ME) and were housed for at least a week for acclimatization. […] Fecal parasite shedding was measured using a quantitative PCR (qPCR) assay, and the primers named above as Cp18s forward and Cp18s reverse.

Structure (SMILES): CN(C)C[C@H](O)Cn1c2ccc(Br)cc2c2cc(Br)ccc21 (racemic) [Wiskostatin, wiskostatin]
- % Inhibition (normalized to DMSO control) [1]: 92%
- inhibition at 11.3 µM ([1]; Cryptosporidium parvum, HCT-8, 3 h, read-out: % Inhibition (normalized to DMSO control)): 90%

Structure (SMILES): O=C(Nc1ccc(Cl)cc1)N1CCN(c2ccc3nncn3n2)CC1 [MMV665917]
- potency against asexual vs sexual stage parasites [2]: equal potency against asexual and sexual stage parasites

Structure (SMILES): CC(=O)Oc1ccccc1C(=O)Nc1ncc([N+](=O)[O-])s1 [Nitazoxanide, nitazoxanide]
- % C. parvum relative to DMSO control ([3]; EC90, 0 h exposure): 92.14% and 109.39% and 105.07% and 102.65%
- % C. parvum relative to DMSO control ([3]; EC90, 6 h exposure): 89.44% and 63.73% and 107.77% and 101.99%
- % C. parvum relative to DMSO control ([3]; EC90, 12 h exposure): 64.07% and 50.47% and 61.96% and 52.34%
- % C. parvum relative to DMSO control ([3]; EC90, 24 h exposure): 33.99% and 23.15% and 39.39% and 30.38%
- % C. parvum relative to DMSO control ([3]; EC90, 48 h exposure): 66.11% and 87.75% and 96.10% and 82.36%
- % C. parvum relative to DMSO control ([3]; EC90, 72 h exposure): 59.95% and 89.51% and 62.55% and 99.92%
- time-kill curve result [3]: likely parasitistatic or very slow acting
- time-kill curve result ([3]; listed as NTZ): No exponential decay curve can be fit
- % Parasite / host nuclei ([3]; compound at 3 x EC90, 0 h exposure, listed as Nitazonxanide): 25.13% and 23.57% and 25.93% and 26.94%
- % Parasite / host nuclei ([3]; compound at 3 x EC90, 6 h exposure, listed as Nitazonxanide): 30.07% and 28.12% and 27.66%
- % Parasite / host nuclei ([3]; compound at 3 x EC90, 24 h exposure, listed as Nitazonxanide): 13.35% and 18.43% and 17.09% and 15.85%
- % Parasite / host nuclei ([3]; compound at 3 x EC90, 48 h exposure, listed as Nitazonxanide): 16.05% and 22.2% and 25.78% and 20.53%
- % Parasite / host nuclei ([3]; compound at 3 x EC90, 72 h exposure): Toxic
- % Parasite / host nuclei ([3]; compound at 6 x EC90, 0 h exposure, listed as Nitazonxanide): 26.94% and 25.13% and 23.57% and 25.93%
- % Parasite / host nuclei ([3]; compound at 6 x EC90, 6 h exposure, listed as Nitazonxanide): 30.15% and 26.39% and 33.45% and 27.12%
- % Parasite / host nuclei ([3]; compound at 6 x EC90, 24 h exposure, listed as Nitazonxanide): 10.66% and 16.54% and 13.19% and 15.55%
- % Parasite / host nuclei ([3]; compound at 6 x EC90, 48 h exposure, listed as Nitazonxanide): 24.32% and 23.51% and 19.71% and 19.93%
- % Parasite / host nuclei ([3]; compound at 6 x EC90, 72 h exposure): Toxic
- % Parasite / host nuclei ([3]; compound at 9 x EC90, 0 h exposure, listed as Nitazonxanide): 26.94% and 25.13% and 23.57% and 25.93%
- % Parasite / host nuclei ([3]; compound at 9 x EC90, 6 h exposure, listed as Nitazonxanide): 26.17% and 22.66% and 19.45% and 20.04%
- % Parasite / host nuclei ([3]; compound at 9 x EC90, 24 h exposure, listed as Nitazonxanide): 13.32% and 10.07% and 14.28% and 12.9%
- % Parasite / host nuclei ([3]; compound at 9 x EC90, 48 h exposure, listed as Nitazonxanide): 23.17% and 21.12% and 20.67% and 21.26%
- % Parasite / host nuclei ([3]; compound at 9 x EC90, 72 h exposure): Toxic
- % Parasite / host nuclei ([3]; compound at 12 x EC90, 0 h exposure, listed as Nitazonxanide): 26.94% and 25.13% and 23.57% and 25.93%
- % Parasite / host nuclei ([3]; compound at 12 x EC90, 24 h exposure, listed as Nitazonxanide): 12.84% and 10.89% and 15.16% and 10.85%
- % Parasite / host nuclei ([3]; compound at 12 x EC90, 48 h exposure, listed as Nitazonxanide): 17.1% and 18.74% and 17.39% and 22.34%
- % Parasite / host nuclei ([3]; compound at 12 x EC90, 72 h exposure): Toxic
- % Parasite / host nuclei ([3]; compound at EC50, 0 h exposure, listed as Nitazonxanide): 26.94% and 25.13% and 23.57% and 25.93%
- % Parasite / host nuclei ([3]; compound at EC50, 6 h exposure, listed as Nitazonxanide): 25.94% and 27.24% and 39.66% and 24.06%
- % Parasite / host nuclei ([3]; compound at EC50, 24 h exposure, listed as Nitazonxanide): 49.74% and 52.37% and 49.99% and 64.54%
- % Parasite / host nuclei ([3]; compound at EC50, 48 h exposure, listed as Nitazonxanide): 50.13% and 44.73% and 56.15% and 36.04%
- % Parasite / host nuclei ([3]; compound at EC50, 72 h exposure, listed as Nitazonxanide): 36.74% and 33.35% and 25.45% and 34.5%
- % Parasite / host nuclei ([3]; compound at EC90, 0 h exposure, listed as Nitazonxanide): 26.94% and 25.13% and 23.57% and 25.93%
- % Parasite / host nuclei ([3]; compound at EC90, 6 h exposure, listed as Nitazonxanide): 29.07%
- % Parasite / host nuclei ([3]; compound at EC90, 24 h exposure, listed as Nitazonxanide): 18.51% and 12.77% and 20.62% and 15.68%
- % Parasite / host nuclei ([3]; compound at EC90, 48 h exposure, listed as Nitazonxanide): 23.29% and 31.8% and 31.94% and 28.34%
- % Parasite / host nuclei ([3]; compound at EC90, 72 h exposure, listed as Nitazonxanide): 16.17% and 23.44% and 16.12% and 24.86%
- EC50 ([4]; Cryptosporidium parvum, HCT-8, in Vicia villosa): 1190 nM
- EC50 [4]: 2090 nM and 1750 nM

Structure (SMILES): NC[C@@H]1O[C@H](O[C@H]2[C@@H](O)[C@H](O[C@@H]3[C@@H](O)[C@H](N)C[C@H](N)[C@H]3O[C@H]3O[C@H](CO)[C@@H](O)[C@H](O)[C@H]3N)O[C@@H]2CO)[C@H](N)[C@@H](O)[C@@H]1O [Paromomycin, paromomycin, reference compound]
- parasite fecal shedding (qPCR), individual mice ([5]; D7 (before treatment)): 801.749 oocysts/mg feces and 822.565 oocysts/mg feces and 435.223 oocysts/mg feces and 38.903 oocysts/mg feces
- parasite fecal shedding (qPCR), individual mice ([5]; D11): 28.872 oocysts/mg feces and 141.665 oocysts/mg feces and 45.072 oocysts/mg feces and 47.829 oocysts/mg feces
- reduction of fecal parasite shedding ([5]; paromomycin positive control, after 4 days of treatment, once daily oral): ~90%

— paper PMC6597546, “Identification of a potent benzoxaborole drug candidate for treating cryptosporidiosis” (Nature Communications, 2019)
